Series [1] relates to Plasmodium falciparum. Briefly: microbe, parasite or virus in culture. Particulars: K1.
Description: Antimalarial activity against Plasmodium falciparum K1
Series [2] concerns Plasmodium falciparum. In words: microbe, parasite or virus in culture. The settings on record: FCR-3/Gambia.
Description: Antimalarial activity against Plasmodium falciparum FCR3
Series [3] relates to L6. Briefly: Cytotoxicity at rat L6 cells after 72 hrs by microplate alamar blue assay. It is filed as cell-based. For orientation: Resazurin is reduced to fluorescent resorufin, in cell work by metabolically active cells.
For series [4], the system named is Plasmodium falciparum. In words: microbe, parasite or virus in culture. Particulars: K1. This is another data set of the same source.
Description: Antimalarial activity against multidrug-resistant Plasmodium falciparum K1 infected in human red blood cells assessed as 3H-hypoxanthine incorporation after 48 hrs by liquid scintillation counting
The test system of series [5] is Plasmodium falciparum. In words: microbe, parasite or virus in culture. Particulars: NF54.
Description: Antimalarial activity against Plasmodium falciparum NF54
The subject of series [6] is Plasmodium falciparum. Briefly: microbe, parasite or virus in culture. The settings on record: HB3.
Description: Antimalarial activity against Plasmodium falciparum HB3
Series [7] concerns Plasmodium falciparum. Briefly: microbe, parasite or virus in culture. The settings on record: Mad20/Papua New Guinea.
Description: Antimalarial activity against Plasmodium falciparum Mad20
Series [8] deals with Plasmodium falciparum. In words: microbe, parasite or virus in culture. The settings on record: W2, 48 h.
In series [9] the test system is Plasmodium falciparum. In words: microbe, parasite or virus in culture. The settings on record: FC27/Papua New Guinea.
Description: Antimalarial activity against Plasmodium falciparum FC27
The nature of series [10]: Distribution coefficient, log D of the compound at pH 7.4. It is filed as physicochemical. The settings on record: octanol/water.
A short description of series [11]: Selectivity index, ratio IC50 for rat L6 cells to IC50 for multidrug-resistant Plasmodium falciparum K1 infected in human red blood cells. The format is functional.
The subject of series [12] is Plasmodium falciparum. Briefly: Ratio IC50 for chloroquine to compound for multidrug-resistant Plasmodium falciparum K1. It is filed as functional.
Series [13] concerns Plasmodium berghei. Briefly: Antimalarial activity against GFP-transfected Plasmodium berghei strain ANKA infected in NMRI mouse assessed as reduction in parasitemia at 25 mg/kg, po administered as single dose measured on day 2 by FACS analysis. It is filed as functional. Also on record: scale not given: the % may be the effect or the level left.
The subject of series [14] is Plasmodium berghei. In words: Antimalarial activity against GFP-transfected Plasmodium berghei strain ANKA infected in NMRI mouse assessed as reduction in parasitemia at 25 mg/kg, po administered as single dose measured on day 5 by FACS analysis. The format is functional. Further details: scale not given: the % may be the effect or the level left. On the technique in general: A flow cytometer gives signals particle by particle.

Series [15] has as its system Plasmodium berghei. Briefly: Antimalarial activity against GFP-transfected Plasmodium berghei strain ANKA infected in NMRI mouse assessed as reduction in parasitemia at 25 mg/kg, po administered as single dose measured on day 3 by FACS analysis. It is filed as functional. Further details: scale not given: the % may be the effect or the level left.
Series [16] deals with Plasmodium berghei. Briefly: Antimalarial activity against GFP-transfected Plasmodium berghei strain ANKA infected in NMRI mouse assessed as increase in mean survival time at 50 mg/kg, po administered as single dose (reference value: 5 days ).
Series [17] has as its system Plasmodium berghei. In words: Antimalarial activity against GFP-transfected Plasmodium berghei strain ANKA infected in NMRI mouse assessed as reduction in parasitemia at 50 mg/kg, po administered as single dose measured on day 5 by FACS analysis. It is filed as functional. Further details: scale not given: the % may be the effect or the level left.
Series [18] concerns Plasmodium berghei. Briefly: Antimalarial activity against GFP-transfected Plasmodium berghei strain ANKA infected in NMRI mouse assessed as reduction in parasitemia at 50 mg/kg, po administered as single dose measured on day 4 by FACS analysis. It is filed as functional. Further details: scale not given: the % may be the effect or the level left.
In series [19] the test system is Plasmodium berghei. In words: Antimalarial activity against GFP-transfected Plasmodium berghei strain ANKA infected in NMRI mouse assessed as reduction in parasitemia at 50 mg/kg, po administered as single dose measured on day 2 by FACS analysis. It is filed as functional. Also on record: scale not given: the % may be the effect or the level left.
Series [20] can be described thus: Metabolic stability in rat liver microsomes assessed as intrinsic clearance per mg protein after 60 mins by LC-MS analysis. The format is ADME, Microsome. For orientation: Microsomes from liver hold many membrane-bound enzymes, among them those of drug oxidation.
Series [21] relates to Plasmodium berghei. Briefly: Antimalarial activity against GFP-transfected Plasmodium berghei strain ANKA infected in NMRI mouse assessed as reduction in parasitemia at 25 mg/kg, po administered as single dose measured on day 4 by FACS analysis. Further details: scale not given: the % may be the effect or the level left. The format is functional.
A short description of series [22]: Metabolic stability in human liver microsomes assessed as degradation half life after 60 mins by LC-MS analysis. The format is ADME, Microsome.
In series [23] the test system is Plasmodium berghei. In words: Antimalarial activity against GFP-transfected Plasmodium berghei strain ANKA infected in NMRI mouse assessed as increase in mean survival time at 25 mg/kg, po administered as single dose (reference value: 5 days ).
Series [24] is described as follows: Metabolic stability in mouse liver microsomes assessed as degradation half life after 60 mins by LC-MS analysis. It is filed as ADME, Microsome.
Series [25] can be described thus: Metabolic stability in rat liver microsomes assessed as degradation half life after 60 mins by LC-MS analysis. It is filed as ADME, Microsome.
The subject of series [26] is Plasmodium berghei. In words: Antimalarial activity against GFP-transfected Plasmodium berghei strain ANKA infected in NMRI mouse assessed as reduction in parasitemia at 50 mg/kg, po administered as single dose measured on day 3 by FACS analysis. The format is functional. Further details: scale not given: the % may be the effect or the level left.
The nature of series [27]: Metabolic stability in mouse liver microsomes assessed as intrinsic clearance per mg protein after 60 mins by LC-MS analysis. It is filed as ADME, Microsome.
Series [28] in a line: Metabolic stability in human liver microsomes assessed as intrinsic clearance per mg protein after 60 mins by LC-MS analysis. The format is ADME, Microsome.
In series [29] the test system is Plasmodium falciparum. In words: Antimalarial activity against Plasmodium falciparum W2. It is filed as functional, organism-based.
Series [30] concerns Plasmodium falciparum. Briefly: Antimalarial activity against Plasmodium falciparum GHA. It is filed as functional, organism-based.
The subject of series [31] is Plasmodium berghei. Briefly: Antimalarial activity against GFP-transfected Plasmodium berghei strain ANKA infected in NMRI mouse assessed as complete cure from parasite infection at 3 to 50 mg/kg, po administered as multiple dose for 4 days measured 24 hrs after last treatment. The format is functional, organism-based.

pIC50: −log10 of the molar value. Active and inactive are the calls of the source. No cut-off for these calls is given here. Where only a bound is given, the exact number is not on record here.

The term pIC50 denotes −log10 of the IC50, conventionally taken in molar units. The logD is the decadic logarithm of the distribution of all forms, ionised or not, between an organic phase and buffer at a given pH. As for `CCNCCNc1cc(-c2ccc(C(F)(F)F)cc2)c(C#N)c2nc3ccccc3n12` [listing 1 of 2 here], the pIC50 in [1] was 6.94; in series [2], 6.81; in series [3] (Rattus norvegicus, L6, 72 h) it was 5.61; in series [4], 6.92; in [5] it was 6.96; in series [6], 7.05. Also, the pIC50 in series [7] was 6.97; in [8] it was 6.91; in series [9], 6.96. Also, in series [10], the logD came to 2.01. Moreover, the “Ratio IC50” value in [11] was 20.5.
As for `N#Cc1c(-c2ccccc2)cc(NCCN)n2c1nc1ccccc12`, the pIC50 was 4.72 in series [3] (Rattus norvegicus, L6, 72 h) and 5.35 in series [4]. The figures for the “Ratio IC50” value in series [12] and in series [11] were 22 and 4.2, respectively. For the same compound, the logD in [10] was determined as 0.83.
With `CCN(CC)CCNc1cc(-c2ccc(C(F)(F)F)cc2)c(C#N)c2nc3ccccc3n12`, the pIC50 in [1] is 7.33; in series [2], 6.86; in [3] (l6), 4.54; in series [4], 7.33; in [5], 6.96; in [6], 7.22. The pIC50 is 6.98 in series [7], 7.08 in series [8] and 6.76 in series [9]. The “Ratio IC50” value in [12] was determined as 3.5; in series [11] it was 612. In [10], this compound showed a logD of 2.94.
In general, microsomal CLint refers to the rate of metabolic loss divided by the concentration. By half-life is commonly meant how long it takes for the measured level to halve. For the compound `Cl.N#Cc1c(-c2ccc(C(F)(F)F)cc2)cc(NCCN2CCCC2)n2c1nc1ccccc12`, the Activity is 14.75% in series [13]; 63.72% in [14]; 43.2% in series [15]; 88.53% in [17]; 73.01% in series [18]; 14.04% in series [19]. Besides, the Activity was determined as 63.73% in series [21] and 47.92% in series [26]. Besides, the MSD in series [16] came out at 5 days; in series [23], 7.7 days. For the same compound, the microsomal CLint in [20] amounted to 25.8 µL/min/mg; in series [27], 25.6 µL/min/mg; in series [28], 88.4 µL/min/mg. Also, the half-life in series [22] turned out to be 0.327 h; in [24], 1.13 h; in series [25] it was 1.12 h.
For the compound `N#Cc1c(-c2ccccc2)cc(N2CCNCC2)n2c1nc1ccccc12`, the pIC50 in series [1], in [29] and in [30] was 6.77 throughout.
`Cl.N#Cc1c(-c2ccc(C(F)(F)F)cc2)cc(NCCN2CCCCC2)n2c1nc1ccccc12`: the Activity in series [13] amounted to 28.44%; in [14], 46.41%; in [15], 28.07%; in series [21], 38.72%. The microsomal CLint in series [20] was 27 µL/min/mg; in [27] it was 29.1 µL/min/mg; in [28], 45.8 µL/min/mg. In addition, the half-life in series [22] is 0.632 h; in series [24] it was 0.992 h; in [25] it was 1.07 h. The MSD in series [23] is 12.7 days.
With `CCc1nc(N)nc(N)c1-c1ccc(Cl)cc1` [PYRIMETHAMINE], the pIC50 was 5.00 in series [1]; 7.92 in series [2]; 7.72 in series [5]; 5.94 in [6]; more than 7.22 in series [7]; 4.53 in series [8]. Moreover, the pIC50 in series [9] was more than 7.22.
For the compound `CCNCCNc1cc(-c2ccc(C(F)(F)F)cc2)c(C#N)c2nc3ccccc3n12` [listing 2 of 2 here], the outcome in series [31] was inactive.

These data come from ChEMBL document CHEMBL1799932, “Antimalarial pyrido[1,2-a]benzimidazoles” (J Med Chem, 2011).
